# The source made the active and inactive calls. No cut-off for these calls is given here.
# Assays:
# Plasma = experiment: Drug uptake in CD1 albino mouse plasma at 50 mg/kg, po up to 48 hrs; assay type: ADME, organism-based; design: dose 50 mg/kg, route oral; conditions: in vivo
# [1] = Elimination half life in CD1 albino mouse plasma at 50 mg/kg, po measured from 6 to 48 hrs post-dosing; assay type: ADME, organism-based; design: dose 50 mg/kg, route oral; conditions: read-out: beta t1/2 (converted)
# [2] = Apparent volume of distribution in CD1 albino mouse at 50 mg/kg, po; assay type: ADME, organism-based; design: dose 50 mg/kg, route oral; conditions: in vivo, read-out: Vc/F
# [3] = Clearance in CD1 albino mouse at 50 mg/kg, po; assay type: ADME, organism-based; design: dose 50 mg/kg, route oral; conditions: in vivo
# [4] = Ratio of drug uptake in blood to plasma in CD1 albino mouse; assay type: ADME; conditions: whole blood and plasma
# Liver = experiment: Drug uptake in CD1 albino mouse liver at 50 mg/kg, po at 2 to 6 hrs; assay type: ADME, organism-based; design: dose 50 mg/kg, route oral; conditions: in vivo
# Heart [5] = experiment: Cardiotoxicity against Sprague-Dawley rat Langendorff perfused heart assessed as heart rate at 0.1 uM by electrophysiological analysis (reference value: 236.68 7.83 bpm); assay type: toxicity, tissue-based
# Heart [6] = experiment: Cardiotoxicity against Sprague-Dawley rat Langendorff perfused heart assessed as heart rate at 30 uM by electrophysiological analysis (reference value: 236.68 7.83 bpm); assay type: toxicity, tissue-based
# Salmonella typhimurium [7] = experiment: Mutagenicity against Salmonella typhimurium TA98 assessed as revertants at 3 uM incubated for 90 mins followed by drug washout measured after 2 days relative to positive control; assay type: toxicity, organism-based; conditions: salmonella enterica subsp. enterica serovar typhimurium, 1.5 h
# Salmonella typhimurium [8] = experiment: Mutagenicity against Salmonella typhimurium TA98 assessed as revertants at 6 uM incubated for 90 mins followed by drug washout measured after 2 days relative to positive control; assay type: toxicity, organism-based; conditions: salmonella enterica subsp. enterica serovar typhimurium, 1.5 h
# Salmonella typhimurium [9] = experiment: Mutagenicity against Salmonella typhimurium TA98 assessed as revertants at 24 uM incubated for 90 mins followed by drug washout measured after 2 days relative to positive control; assay type: toxicity, organism-based; conditions: salmonella enterica subsp. enterica serovar typhimurium, 1.5 h
# Salmonella typhimurium [10] = experiment: Mutagenicity against Salmonella typhimurium TA100 assessed as revertants at 1.5 uM incubated for 90 mins followed by drug washout measured after 2 days relative to positive control; assay type: toxicity, organism-based; conditions: salmonella enterica subsp. enterica serovar typhimurium, 1.5 h
# Salmonella typhimurium [11] = experiment: Mutagenicity against Salmonella typhimurium TA100 assessed as revertants at 3 uM incubated for 90 mins followed by drug washout measured after 2 days relative to positive control; assay type: toxicity, organism-based; conditions: salmonella enterica subsp. enterica serovar typhimurium, 1.5 h
# Salmonella typhimurium [12] = experiment: Mutagenicity against Salmonella typhimurium TA100 assessed as revertants at 6 uM incubated for 90 mins followed by drug washout measured after 2 days relative to positive control; assay type: toxicity, organism-based; conditions: salmonella enterica subsp. enterica serovar typhimurium, 1.5 h
# Salmonella typhimurium [13] = experiment: Mutagenicity against Salmonella typhimurium TA100 assessed as revertants at 48 uM incubated for 90 mins followed by drug washout measured after 2 days relative to positive control; assay type: toxicity, organism-based; conditions: salmonella enterica subsp. enterica serovar typhimurium
# Heart [14] = experiment: Cardiotoxicity against Sprague-Dawley rat Langendorff perfused heart assessed as QTc time interval at 10 uM by electrophysiological analysis (reference value: 145.78 10.53 ms); assay type: toxicity, tissue-based
# Heart [15] = experiment: Cardiotoxicity against Sprague-Dawley rat Langendorff perfused heart assessed as QTc time interval at 0.1 uM by electrophysiological analysis (reference value: 145.78 10.53 ms); assay type: toxicity, tissue-based
# Heart [16] = experiment: Cardiotoxicity against Sprague-Dawley rat Langendorff perfused heart assessed as QT time interval at 10 uM by electrophysiological analysis (reference value: 73.01 4.52 ms); assay type: toxicity, tissue-based
# Heart [17] = experiment: Cardiotoxicity against Sprague-Dawley rat Langendorff perfused heart assessed as QT time interval at 0.1 uM by electrophysiological analysis (reference value: 73.01 4.52 ms); assay type: toxicity, tissue-based
# Heart [18] = experiment: Cardiotoxicity against Sprague-Dawley rat Langendorff perfused heart assessed as intraventricular conduction time at 10 uM by electrophysiological analysis (reference value: 13.92 0.42 ms); assay type: toxicity, tissue-based
# Heart [19] = experiment: Cardiotoxicity against Sprague-Dawley rat Langendorff perfused heart assessed as atrioventricular conduction time at 30 uM by electrophysiological analysis (reference value: 42.67 2.29 ms); assay type: toxicity, tissue-based
# Heart [20] = experiment: Cardiotoxicity against Sprague-Dawley rat Langendorff perfused heart assessed as cycle length time at 30 uM by electrophysiological analysis (reference value: 258.62 8.87 ms); assay type: toxicity, tissue-based
# Heart [21] = experiment: Cardiotoxicity against Sprague-Dawley rat Langendorff perfused heart assessed as cycle length time at 10 uM by electrophysiological analysis (reference value: 258.62 8.87 ms); assay type: toxicity, tissue-based
# Plasmodium falciparum [22] = experiment: Antiplasmodial activity against chloroquine-resistant Plasmodium falciparum W2 infected in human RBC after 72 hrs by parasite lactate dehydrogenase assay; assay type: functional, organism-based; conditions: W2, 72 h
# Plasmodium falciparum [23] = experiment: Antiplasmodial activity against chloroquine-resistant Plasmodium falciparum K1 infected in human erythrocytes assessed as inhibition of [3H]hypoxanthine incorporation incubated for 48 hrs prior to [3H]hypoxanthine addition measured after 48 hrs by liquid scintillation counting; assay type: functional, organism-based
# Plasmodium berghei [24] = experiment: Antimalarial activity against Plasmodium berghei ANKA expressing GFP infected in mouse assessed as reduction in parasitemia at 30 mg/kg, po administered 24 hrs post-infection measured 48 hrs post-dosing by flow cytometric analysis; assay type: functional; design: scale not given: the % may be the effect or the level left
# Plasmodium berghei [25] = experiment: Antimalarial activity against Plasmodium berghei ANKA expressing GFP infected in mouse assessed as mean survival days at 30 mg/kg, po administered 24 hrs post-infection (reference value: 6 to 7 days); assay type: functional
# Plasmodium berghei [26] = experiment: Antimalarial activity against Plasmodium berghei ANKA expressing GFP infected in mouse assessed as mean survival days at 50 mg/kg, po administered QD for 3 days (reference value: 6 to 7 days); assay type: functional
# Plasmodium berghei [27] = experiment: Antimalarial activity against Plasmodium berghei ANKA expressing GFP infected in mouse assessed as cure from infection at 100 mg/kg, po administered 24 hrs post-infection measured on day 30; assay type: functional, organism-based; design: dose 100 mg/kg
# Plasmodium berghei [28] = experiment: Antimalarial activity against Plasmodium berghei ANKA expressing GFP infected in mouse assessed as cure from infection at 30 mg/kg, po administered at 6,24,48 and 72 hrs post-infection measured on day 30; assay type: functional, organism-based; design: dose 30 mg/kg
# [29] = biological target: T1, Chloroquine resistance transporter (Plasmodium falciparum) (UniProt Q9N623); experiment: Inhibition of chloroquine-sensitive Plasmodium falciparum D10 CRT expressed in Xenopus laevis oocyte assessed as inhibition of [3H]chloroquine uptake at 100 uM measured from 1 to 2 hrs
# T1 sequence (whole entry): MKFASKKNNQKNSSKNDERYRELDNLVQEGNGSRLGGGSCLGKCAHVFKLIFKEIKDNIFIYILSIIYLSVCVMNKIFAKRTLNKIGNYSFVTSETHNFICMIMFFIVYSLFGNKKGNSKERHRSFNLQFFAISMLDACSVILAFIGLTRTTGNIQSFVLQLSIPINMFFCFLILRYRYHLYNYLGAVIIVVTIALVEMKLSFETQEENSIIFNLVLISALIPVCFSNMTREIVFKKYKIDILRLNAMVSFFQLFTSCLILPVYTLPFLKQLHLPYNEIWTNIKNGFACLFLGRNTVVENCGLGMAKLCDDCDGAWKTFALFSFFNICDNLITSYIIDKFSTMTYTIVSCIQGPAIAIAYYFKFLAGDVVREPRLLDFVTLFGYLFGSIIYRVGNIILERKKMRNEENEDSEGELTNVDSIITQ
# [30] = biological target: Chloroquine resistance transporter (Plasmodium falciparum, UniProt Q9N623); experiment: Inhibition of chloroquine-resistant Plasmodium falciparum Dd2 CRT expressed in Xenopus laevis oocyte assessed as inhibition of [3H]chloroquine uptake measured from 1 to 2 hrs
# [31] = Cytotoxicity against human HepG2 cells after 24 hrs by neutral red dye uptake assay; assay type: cell-based; conditions: read-out: TC50
smiles,measurement,setting,value
Clc1ccc(C(Nc2ccnc3cc(Cl)ccc23)c2ccc(CN3CCNCC3)cc2)cc1 (racemic),Drug uptake,Plasma,Active
same,half-life,[1],22 h
same,Vd/F,[2],153 L/kg
same,CL/F,[3],4.92 L/h/kg
same,blood plasma ratio,[4],1.9
same,Drug uptake,Liver,Active
same,Activity,Heart [5],235.08 bpm
same,Activity,Heart [6],116.31 bpm
same,Activity,Salmonella typhimurium [7],4%
same,Activity,Salmonella typhimurium [8],6%
same,Activity,Salmonella typhimurium [9],4%
same,Activity,Salmonella typhimurium [10],19%
same,Activity,Salmonella typhimurium [11],22%
same,Activity,Salmonella typhimurium [12],13%
same,Activity,Salmonella typhimurium [13],28%
same,Time,Heart [14],177.33 ms
same,Time,Heart [15],145.15 ms
same,Time,Heart [16],94.5 ms
same,Time,Heart [17],74 ms
same,Time,Heart [18],17 ms
same,Time,Heart [19],75.67 ms
same,Time,Heart [20],317 ms
same,Time,Heart [21],294 ms
same,IC50,Plasmodium falciparum [22],0.058 µM
same,IC50,Plasmodium falciparum [23],0.022 µM
same,Activity,Plasmodium berghei [24],99.7%
same,MSD,Plasmodium berghei [25],15.8 days
same,MSD,Plasmodium berghei [26],29.6 days
same,Activity,Plasmodium berghei [27],inactive
same,Activity,Plasmodium berghei [28],inactive
same,inhibition,[29],inactive
same,IC50,[30],10.3 µM
same,CC50 at 24 h,[31],1.8 µM
